Experimental data reported in patent publication US10954214B2 (Janssen Pharmaceutica NV, priority 2016, dated 2021).

What was measured:
[1] = test system: IL10 secretion by OCI-LY3 ABC-DLBCL cells; test: Human IL10 Mesoscale assay (OCI-LY3); type: cell-based; details: Homo sapiens, 24 h
Method in brief: (§1)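 After 24 h at 37 °C with test compounds (15 μM down to 58.6 nM, 9 twofold steps, 0.3% DMSO), IL6 and IL10 secreted by 100,000 OCI-LY3 or TMD8 cells per well were measured in supernatants with a Mesoscale immunoassay. Data were scaled between DMSO wells (high) and RN486 treatment (low).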

[2] = biological target: full-length MALT1 protein (Strep-MALT1(1-824)-His) (Homo sapiens (Human), UniProt Q9UDY8); test: MALT1 Biochemical Protease Assay (Ac-LRSR-AMC substrate); details: 10 nM FL MALT1, 200 μM Ac-LRSR-AMC, 4 h at RT; read-out: MALT1_Biochemical activity (Ac-LRSR-amc) IC50
Method in brief: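 Fluorescence from AMC release off the quenched LRSR substrate was read after a 4 h reaction at RT. Values were normalised to no-enzyme and uninhibited controls and fitted for IC50 and Hill coefficient.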

[3] = test system: IL10 secretion by TMD8 ABC-DLBCL cells; test: Human IL10 Mesoscale assay (TMD-8); type: cell-based; details: Homo sapiens, TMD8; TMD-8 cells, 24 h
Method in brief: as §1

[4] = test system: IL6 secretion by TMD8 ABC-DLBCL cells; test: Human IL6 Mesoscale assay (TMD-8); type: cell-based; details: Homo sapiens, TMD8; TMD-8 cells, 24 h
Method in brief: as §1

[5] = test system: IL6 secretion by OCI-LY3 ABC-DLBCL cells; test: Human IL6 Mesoscale assay (OCI-LY3); type: cell-based; details: Homo sapiens, 24 h
Method in brief: as §1

Sequence of full-length MALT1 protein (Strep-MALT1(1-824)-His) (Q9UDY8 whole entry): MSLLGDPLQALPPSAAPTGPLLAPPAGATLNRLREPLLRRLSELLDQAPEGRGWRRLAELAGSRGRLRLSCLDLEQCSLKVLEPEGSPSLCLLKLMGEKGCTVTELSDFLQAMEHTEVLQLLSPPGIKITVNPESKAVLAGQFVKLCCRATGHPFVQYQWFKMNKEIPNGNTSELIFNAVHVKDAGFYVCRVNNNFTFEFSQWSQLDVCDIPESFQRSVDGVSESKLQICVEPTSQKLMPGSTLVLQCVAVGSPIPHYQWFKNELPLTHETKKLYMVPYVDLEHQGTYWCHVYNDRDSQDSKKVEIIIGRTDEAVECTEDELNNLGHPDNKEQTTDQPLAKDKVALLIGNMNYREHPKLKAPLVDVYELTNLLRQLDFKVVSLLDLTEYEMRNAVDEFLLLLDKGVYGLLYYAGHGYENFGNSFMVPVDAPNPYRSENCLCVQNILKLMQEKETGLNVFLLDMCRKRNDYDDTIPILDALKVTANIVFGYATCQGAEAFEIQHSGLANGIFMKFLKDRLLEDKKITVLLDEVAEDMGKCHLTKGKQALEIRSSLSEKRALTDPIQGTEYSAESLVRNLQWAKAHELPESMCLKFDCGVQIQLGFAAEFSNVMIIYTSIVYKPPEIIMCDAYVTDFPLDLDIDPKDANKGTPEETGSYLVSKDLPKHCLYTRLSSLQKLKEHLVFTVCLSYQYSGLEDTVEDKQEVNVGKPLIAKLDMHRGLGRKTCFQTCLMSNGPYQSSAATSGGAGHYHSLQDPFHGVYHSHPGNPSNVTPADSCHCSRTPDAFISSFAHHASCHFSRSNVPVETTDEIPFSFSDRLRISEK

Row | SMILES | IC50 [1] [nM] | IC50 [2] [nM] | IC50 [3] [nM] | IC50 [4] [nM] | IC50 [5] [nM]
1 | O=C(Nc1cnc(-n2nccn2)c(Cl)c1)c1cnn(-c2cnc([C@H]3CCCO3)c3ccccc23)c1C(F)(F)F (single isomer, unassigned) [Cpd 436, (*R)—N-(5-chloro-6-(2H-1,2,3-triazol-2-yl)pyridin-3-yl)-1-(1-(tetrahydrofuran-2-yl)isoquinolin-4-yl)-5-(trifluoromethyl)-1H-pyrazole-4-carboxamide] | 110 | 1320 | – | – | 141
2 | COC(=O)c1ncc(NC(=O)c2cnn(-c3cccc4c(=O)[nH]ccc34)c2C(F)(F)F)cc1Cl [Cpd 355, methyl 3-chloro-5-(1-(1-oxo-1,2-dihydroisoquinolin-5-yl)-5-(trifluoromethyl)-1H-pyrazole-4-carboxamido)picolinate] | 407 | 10 | – | – | 912
3 | COCc1cnnn1-c1ncc(NC(=O)c2cnn(-c3cccc4ncccc34)c2C(F)(F)F)cc1Cl [Cpd 253, N-(5-chloro-6-(5-(methoxymethyl)-1H-1,2,3-triazol-1-yl)pyridin-3-yl)-1-(quinolin-5-yl)-5-(trifluoromethyl)-1H-pyrazole-4-carboxamide] | 12600 | 282 | – | – | > 15100
4 | O=C(Nc1cnc(-n2nccn2)c(Cl)c1)c1cnn(-c2cnc(N3CC[C@@H](O)C3)c3ccccc23)c1C(F)(F)F [Cpd 427, (R)—N-(5-chloro-6-(2H-1,2,3-triazol-2-yl)pyridin-3-yl)-1-(1-(3-hydroxypyrrolidin-1-yl)isoquinolin-4-yl)-5-(trifluoromethyl)-1H-pyrazole-4-carboxamide] | 158 | 9 | – | – | 204

More lines, in order of falling IC50 [1], values ahead:

Row | IC50 [1] [nM] | IC50 [2] [nM] | IC50 [3] [nM] | IC50 [4] [nM] | IC50 [5] [nM] | SMILES
5 | 95 | 145 | – | – | 112 | Cc1nc2cccc(-n3ncc(C(=O)Nc4cnc(-n5nccn5)c(C#N)c4)c3C(F)(F)F)c2o1 [Cpd 271, N-(5-cyano-6-(2H-1,2,3-triazol-2-yl)pyridin-3-yl)-1-(2-methylbenzo[d]oxazol-7-yl)-5-(trifluoromethyl)-1H-pyrazole-4-carboxamide]
6 | 87 | 117 | – | – | 107 | Nc1ncc(-n2ncc(C(=O)Nc3ccnc(C(F)(F)F)c3)c2C(F)(F)F)c2ccccc12 [Cpd 339, 1-(1-aminoisoquinolin-4-yl)-5-(trifluoromethyl)-N-(2-(trifluoromethyl)pyridin-4-yl)-1H-pyrazole-4-carboxamide]
7 | 41 | 3160 | – | – | 83 | CCc1cc(NC(=O)c2cnn(-c3cccc4nccn34)c2C(F)(F)F)c(CC)nc1-n1nccn1 [Cpd 196, N-(2,5-diethyl-6-(2H-1,2,3-triazol-2-yl)pyridin-3-yl)-1-(imidazo[1,2-a]pyridin-5-yl)-5-(trifluoromethyl)-1H-pyrazole-4-carboxamide]
8 | 36 | 10000 | 105 | 95 | 27 | CC(C)(C)OC(=O)N1CCC1c1nccc2c(-n3ncc(C(=O)Nc4cnc(-n5nccn5)c(Cl)c4)c3C(F)(F)F)cccc12 (stereo not shown) [Cpd 383, tert-butyl 2-(5-(4-((5-chloro-6-(2H-1,2,3-triazol-2-yl)pyridin-3-yl)carbamoyl)-5-(trifluoromethyl)-1H-pyrazol-1-yl)isoquinolin-1-yl)azetidine-1-carboxylate]
9 | 17 | 26 | 200 | 170 | 26 | CNC(=O)c1ncc(-n2ncc(C(=O)Nc3cnc(-n4nccn4)c(Cl)c3)c2C(F)(F)F)c2ccsc12 [Cpd 392, 4-(4-((5-chloro-6-(2H-1,2,3-triazol-2-yl)pyridin-3-yl)carbamoyl)-5-(trifluoromethyl)-1H-pyrazol-1-yl)-N-methylthieno[2,3-c]pyridine-7-carboxamide]
